Assay results from ChEMBL document CHEMBL1909046, “DrugMatrix in vitro pharmacology data”.

What was measured:
[1] = target: Protein phosphatase 3 catalytic subunit alpha (Homo sapiens, UniProt Q08209); design: species or system Escherichia coli;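 note: inhibition of calcineurin (PP2B) enzyme activity, measured with DiFMUP as the substrate; in other assays of this panel Not Active means under 50% inhibition at 10 µM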
Thromboxane-A synthase = target: T1, Thromboxane-A synthase (Homo sapiens, UniProt P24557); test: biochemical; type: tissue-based, Platelet; conditions: platelet;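 note: enzyme inhibition assay with PGH2 supplied as substrate; in other assays of this panel Not Active means under 50% inhibition at 10 µM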
T1 sequence (P24557 whole entry): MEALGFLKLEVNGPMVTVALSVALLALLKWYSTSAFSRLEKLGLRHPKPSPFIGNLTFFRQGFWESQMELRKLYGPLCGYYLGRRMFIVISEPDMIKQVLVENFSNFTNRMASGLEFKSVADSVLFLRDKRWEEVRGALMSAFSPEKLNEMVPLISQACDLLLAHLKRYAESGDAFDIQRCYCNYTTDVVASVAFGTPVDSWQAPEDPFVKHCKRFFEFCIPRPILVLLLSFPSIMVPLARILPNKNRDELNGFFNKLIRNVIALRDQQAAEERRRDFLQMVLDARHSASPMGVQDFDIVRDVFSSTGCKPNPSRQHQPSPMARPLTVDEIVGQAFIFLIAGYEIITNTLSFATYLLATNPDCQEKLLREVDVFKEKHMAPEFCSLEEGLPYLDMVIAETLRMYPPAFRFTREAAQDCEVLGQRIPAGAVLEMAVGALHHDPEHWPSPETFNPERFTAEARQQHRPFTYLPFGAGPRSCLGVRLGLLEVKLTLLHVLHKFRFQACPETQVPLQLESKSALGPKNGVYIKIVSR

[2] = target: Tyrosine-protein kinase Lck (Homo sapiens, UniProt P06239); test: DRUGMATRIX: Protein Tyrosine Kinase, LCK enzyme inhibition (substrate: Poly(Glu:Tyr)); type: cell-based, Insect cells; conditions: insect cells; Not Active = under 50% inhibition at 10 µM
[3] = DRUGMATRIX: Glutamate, NMDA, Agonism radioligand binding (ligand: [3H] CGP-39653); type: cell membranes, Rattus norvegicus, Wistar, Cerebral cortex, Membrane; conditions: Not Active = under 50% inhibition at 10 µM
Vasopressin V1a receptor = Vasopressin V1a receptor (Homo sapiens, UniProt P37288); type: cell membranes, Membrane; conditions: hek293; note: in other assays of this panel Not Active means under 50% inhibition at 10 µM
[4] = target: Epidermal growth factor receptor (Homo sapiens, UniProt P00533); test: DRUGMATRIX: Protein Tyrosine Kinase, EGF Receptor enzyme inhibition (substrate: Poly(Glu:Tyr)); type: cell-based, Insect cells; conditions: insect cells; Not Active = under 50% inhibition at 10 µM
[5] = target: T2, Muscarinic acetylcholine receptor M2 (Homo sapiens, UniProt P08172); type: cell membranes, CHO-K1, Membrane; conditions: cho-k1; note: in other assays of this panel Not Active means under 50% inhibition at 10 µM
T2 sequence (P08172 whole entry): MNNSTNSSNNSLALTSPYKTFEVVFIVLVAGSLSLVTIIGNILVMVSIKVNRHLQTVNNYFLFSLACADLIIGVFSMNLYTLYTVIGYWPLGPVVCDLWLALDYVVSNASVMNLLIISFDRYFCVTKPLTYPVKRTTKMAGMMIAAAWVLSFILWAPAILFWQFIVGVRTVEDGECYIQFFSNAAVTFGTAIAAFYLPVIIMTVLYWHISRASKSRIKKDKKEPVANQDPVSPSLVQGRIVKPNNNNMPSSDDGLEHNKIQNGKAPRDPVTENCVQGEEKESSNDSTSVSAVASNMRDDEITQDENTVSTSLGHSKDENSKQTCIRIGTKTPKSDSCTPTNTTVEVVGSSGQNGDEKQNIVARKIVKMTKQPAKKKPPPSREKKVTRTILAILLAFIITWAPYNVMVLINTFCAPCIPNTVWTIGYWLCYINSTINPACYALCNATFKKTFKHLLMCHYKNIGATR

[6] = target: Delta-type opioid receptor (Homo sapiens, UniProt P41143); type: cell membranes, HEK293, Membrane; conditions: hek293; note: in other assays of this panel Not Active means under 50% inhibition at 10 µM
Insulin receptor = Insulin receptor (Rattus norvegicus, UniProt P15127); type: cell membranes, Wistar, Liver, Membrane; note: in other assays of this panel Not Active means under 50% inhibition at 10 µM
Melanocortin receptor 4 = Melanocortin receptor 4 (Homo sapiens, UniProt P32245); type: cell membranes, Membrane; conditions: hek293; note: in other assays of this panel Not Active means under 50% inhibition at 10 µM
[7] = target: 5-hydroxytryptamine receptor 6 (Homo sapiens, UniProt P50406); type: cell membranes, HeLa, Membrane; conditions: hela; note: in other assays of this panel Not Active means under 50% inhibition at 10 µM
[8] = DRUGMATRIX: Glutamate, AMPA radioligand binding (ligand: [3H] AMPA); type: cell membranes, Rattus norvegicus, Wistar, Cerebral cortex, Membrane; conditions: Not Active = under 50% inhibition at 10 µM
[9] = target: 5-hydroxytryptamine receptor 2B (Homo sapiens, UniProt P41595); type: cell membranes, CHO-K1, Membrane; conditions: for Ki: read-out: Ki
[10] = target: C-C chemokine receptor type 2 (Homo sapiens, UniProt P41597); type: cell membranes, CHO-K1, Membrane; conditions: cho-k1; note: in other assays of this panel Not Active means under 50% inhibition at 10 µM
[11] = DRUGMATRIX: Nicotinic Acetylcholine radioligand binding (ligand: [125I] Epibatidine); type: cell membranes, Membrane; conditions: imr-32; Not Active = under 50% inhibition at 10 µM
[12] = target: T3, C-C chemokine receptor type 4 (Homo sapiens, UniProt P51679); type: cell membranes, Membrane; conditions: chem-1; note: in other assays of this panel Not Active means under 50% inhibition at 10 µM
T3 sequence (P51679 whole entry): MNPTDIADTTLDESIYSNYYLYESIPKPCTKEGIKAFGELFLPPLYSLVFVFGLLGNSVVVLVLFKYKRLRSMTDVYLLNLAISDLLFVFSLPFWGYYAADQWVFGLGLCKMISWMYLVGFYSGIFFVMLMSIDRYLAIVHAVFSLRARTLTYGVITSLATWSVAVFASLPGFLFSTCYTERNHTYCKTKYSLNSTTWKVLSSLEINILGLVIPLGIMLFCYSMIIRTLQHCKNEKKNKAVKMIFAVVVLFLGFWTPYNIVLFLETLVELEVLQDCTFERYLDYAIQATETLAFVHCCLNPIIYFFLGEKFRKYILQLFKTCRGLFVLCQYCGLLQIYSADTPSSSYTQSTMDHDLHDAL

[13] = target: T4, C-X-C chemokine receptor type 2 (Homo sapiens, UniProt P25025); type: cell membranes, Membrane; conditions: cho-k1; note: in other assays of this panel Not Active means under 50% inhibition at 10 µM
T4 sequence (P25025 whole entry): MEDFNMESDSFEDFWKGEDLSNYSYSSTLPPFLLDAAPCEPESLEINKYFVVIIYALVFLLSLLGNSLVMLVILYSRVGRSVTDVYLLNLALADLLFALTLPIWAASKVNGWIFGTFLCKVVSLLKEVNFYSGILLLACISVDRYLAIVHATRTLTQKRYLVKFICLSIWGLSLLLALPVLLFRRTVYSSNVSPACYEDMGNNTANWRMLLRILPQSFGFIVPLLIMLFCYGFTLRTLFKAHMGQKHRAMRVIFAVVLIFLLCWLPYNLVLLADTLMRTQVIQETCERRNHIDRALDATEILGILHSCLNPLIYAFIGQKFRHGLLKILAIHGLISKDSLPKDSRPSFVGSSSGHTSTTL

Acetylcholinesterase = Acetylcholinesterase (Homo sapiens, UniProt P22303); test: DRUGMATRIX: Acetylcholinesterase enzyme inhibition (substrate: acetylthiocholine); type: cell-based, HEK293; conditions: hek293; Not Active = under 50% inhibition at 10 µM
Cannabinoid receptor 1 = Cannabinoid receptor 1 (Homo sapiens, UniProt P21554); type: cell membranes, Membrane; conditions: chem-1; note: in other assays of this panel Not Active means under 50% inhibition at 10 µM
Cannabinoid receptor 1, sequence (P21554 whole entry): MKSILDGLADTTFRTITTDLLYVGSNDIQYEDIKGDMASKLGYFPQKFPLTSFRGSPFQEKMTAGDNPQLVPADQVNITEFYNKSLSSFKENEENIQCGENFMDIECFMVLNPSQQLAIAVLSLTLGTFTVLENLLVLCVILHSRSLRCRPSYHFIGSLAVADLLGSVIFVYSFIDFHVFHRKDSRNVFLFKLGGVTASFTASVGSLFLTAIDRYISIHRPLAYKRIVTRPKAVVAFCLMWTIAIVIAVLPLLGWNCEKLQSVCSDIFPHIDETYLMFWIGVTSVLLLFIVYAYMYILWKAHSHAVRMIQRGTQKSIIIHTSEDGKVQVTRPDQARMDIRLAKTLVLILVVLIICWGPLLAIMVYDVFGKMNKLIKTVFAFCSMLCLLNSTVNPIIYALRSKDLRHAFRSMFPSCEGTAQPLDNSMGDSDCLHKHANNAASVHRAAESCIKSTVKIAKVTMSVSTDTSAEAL

Melanocortin receptor 4, sequence (P32245 whole entry): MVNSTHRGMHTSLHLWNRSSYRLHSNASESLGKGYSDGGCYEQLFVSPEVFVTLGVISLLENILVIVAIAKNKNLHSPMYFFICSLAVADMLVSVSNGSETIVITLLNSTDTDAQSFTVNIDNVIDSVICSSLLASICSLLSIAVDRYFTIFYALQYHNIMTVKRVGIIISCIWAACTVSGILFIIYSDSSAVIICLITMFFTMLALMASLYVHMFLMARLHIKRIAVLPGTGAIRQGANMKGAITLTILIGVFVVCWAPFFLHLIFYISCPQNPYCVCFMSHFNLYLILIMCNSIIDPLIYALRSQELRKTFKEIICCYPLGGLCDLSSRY
Insulin receptor, sequence (P15127 27-759 limits assumed): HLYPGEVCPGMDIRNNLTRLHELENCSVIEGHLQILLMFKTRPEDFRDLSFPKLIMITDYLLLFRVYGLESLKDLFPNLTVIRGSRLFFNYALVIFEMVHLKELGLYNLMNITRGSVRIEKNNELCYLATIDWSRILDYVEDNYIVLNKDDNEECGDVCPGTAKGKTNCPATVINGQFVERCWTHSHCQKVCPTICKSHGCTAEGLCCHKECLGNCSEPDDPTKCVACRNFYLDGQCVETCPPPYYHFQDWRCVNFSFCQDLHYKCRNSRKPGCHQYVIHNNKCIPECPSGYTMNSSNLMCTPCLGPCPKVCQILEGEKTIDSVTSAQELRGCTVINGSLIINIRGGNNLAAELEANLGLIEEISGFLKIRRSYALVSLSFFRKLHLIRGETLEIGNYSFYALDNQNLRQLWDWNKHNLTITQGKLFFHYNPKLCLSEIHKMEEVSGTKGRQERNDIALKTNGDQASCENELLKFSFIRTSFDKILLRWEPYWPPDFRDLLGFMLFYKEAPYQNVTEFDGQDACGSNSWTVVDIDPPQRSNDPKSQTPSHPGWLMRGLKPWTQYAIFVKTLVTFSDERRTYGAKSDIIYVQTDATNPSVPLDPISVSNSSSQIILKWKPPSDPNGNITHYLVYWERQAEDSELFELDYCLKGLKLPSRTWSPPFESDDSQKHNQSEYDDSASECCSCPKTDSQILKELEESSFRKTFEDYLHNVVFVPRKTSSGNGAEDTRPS
Insulin receptor, sequence (P15127 764-1383 limits assumed): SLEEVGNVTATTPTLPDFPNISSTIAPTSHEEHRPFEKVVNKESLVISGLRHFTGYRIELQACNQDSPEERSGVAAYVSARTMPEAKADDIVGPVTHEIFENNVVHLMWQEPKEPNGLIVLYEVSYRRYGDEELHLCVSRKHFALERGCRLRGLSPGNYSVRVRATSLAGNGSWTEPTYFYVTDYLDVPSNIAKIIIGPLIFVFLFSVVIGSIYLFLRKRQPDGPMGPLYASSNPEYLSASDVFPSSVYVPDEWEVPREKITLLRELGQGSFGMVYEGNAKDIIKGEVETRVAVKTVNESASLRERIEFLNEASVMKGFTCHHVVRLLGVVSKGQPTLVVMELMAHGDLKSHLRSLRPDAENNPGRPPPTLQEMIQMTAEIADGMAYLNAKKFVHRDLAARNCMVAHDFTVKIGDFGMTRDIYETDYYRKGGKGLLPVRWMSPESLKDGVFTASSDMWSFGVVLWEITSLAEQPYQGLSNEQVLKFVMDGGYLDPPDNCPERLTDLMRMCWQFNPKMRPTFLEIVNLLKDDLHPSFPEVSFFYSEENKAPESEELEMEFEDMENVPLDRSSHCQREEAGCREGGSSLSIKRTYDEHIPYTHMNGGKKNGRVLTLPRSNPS
5-hydroxytryptamine receptor 6, sequence (P50406 whole entry): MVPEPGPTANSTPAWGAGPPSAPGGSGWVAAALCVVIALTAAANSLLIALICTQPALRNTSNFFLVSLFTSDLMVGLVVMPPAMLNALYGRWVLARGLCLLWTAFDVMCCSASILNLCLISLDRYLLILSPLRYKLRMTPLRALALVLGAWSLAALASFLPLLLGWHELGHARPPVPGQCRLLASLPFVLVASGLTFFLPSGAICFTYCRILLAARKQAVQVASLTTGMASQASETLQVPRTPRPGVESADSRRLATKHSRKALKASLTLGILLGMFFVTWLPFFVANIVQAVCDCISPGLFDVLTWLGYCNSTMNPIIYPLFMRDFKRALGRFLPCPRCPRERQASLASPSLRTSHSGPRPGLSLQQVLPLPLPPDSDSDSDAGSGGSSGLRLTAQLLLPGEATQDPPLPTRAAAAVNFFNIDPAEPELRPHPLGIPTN
Tyrosine-protein kinase Lck, sequence (P06239 whole entry): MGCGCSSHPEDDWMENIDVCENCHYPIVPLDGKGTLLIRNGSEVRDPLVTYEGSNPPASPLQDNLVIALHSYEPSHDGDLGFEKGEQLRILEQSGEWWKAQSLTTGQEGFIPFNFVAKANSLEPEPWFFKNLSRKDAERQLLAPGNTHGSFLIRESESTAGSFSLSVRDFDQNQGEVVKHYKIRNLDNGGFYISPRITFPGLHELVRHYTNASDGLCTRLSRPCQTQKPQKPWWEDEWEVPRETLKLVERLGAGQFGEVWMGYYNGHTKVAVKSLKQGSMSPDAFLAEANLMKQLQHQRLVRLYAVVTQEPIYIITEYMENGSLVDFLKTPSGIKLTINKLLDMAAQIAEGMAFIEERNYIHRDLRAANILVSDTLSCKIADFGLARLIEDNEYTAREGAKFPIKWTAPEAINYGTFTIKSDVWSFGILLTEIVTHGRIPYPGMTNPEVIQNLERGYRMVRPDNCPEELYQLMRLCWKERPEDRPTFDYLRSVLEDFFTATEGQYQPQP
5-hydroxytryptamine receptor 2B, sequence (P41595 whole entry): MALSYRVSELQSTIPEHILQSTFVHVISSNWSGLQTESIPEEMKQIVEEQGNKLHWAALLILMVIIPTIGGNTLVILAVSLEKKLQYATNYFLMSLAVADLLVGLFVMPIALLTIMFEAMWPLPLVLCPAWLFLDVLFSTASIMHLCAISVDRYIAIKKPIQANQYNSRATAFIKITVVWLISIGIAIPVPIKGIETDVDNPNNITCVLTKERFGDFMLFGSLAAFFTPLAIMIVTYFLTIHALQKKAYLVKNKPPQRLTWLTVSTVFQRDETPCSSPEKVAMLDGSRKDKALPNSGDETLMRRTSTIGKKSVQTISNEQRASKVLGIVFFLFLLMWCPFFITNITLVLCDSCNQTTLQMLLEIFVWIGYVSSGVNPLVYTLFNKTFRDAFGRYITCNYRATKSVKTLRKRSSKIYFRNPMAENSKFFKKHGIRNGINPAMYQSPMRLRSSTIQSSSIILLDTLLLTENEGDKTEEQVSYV
Acetylcholinesterase, sequence (P22303 whole entry): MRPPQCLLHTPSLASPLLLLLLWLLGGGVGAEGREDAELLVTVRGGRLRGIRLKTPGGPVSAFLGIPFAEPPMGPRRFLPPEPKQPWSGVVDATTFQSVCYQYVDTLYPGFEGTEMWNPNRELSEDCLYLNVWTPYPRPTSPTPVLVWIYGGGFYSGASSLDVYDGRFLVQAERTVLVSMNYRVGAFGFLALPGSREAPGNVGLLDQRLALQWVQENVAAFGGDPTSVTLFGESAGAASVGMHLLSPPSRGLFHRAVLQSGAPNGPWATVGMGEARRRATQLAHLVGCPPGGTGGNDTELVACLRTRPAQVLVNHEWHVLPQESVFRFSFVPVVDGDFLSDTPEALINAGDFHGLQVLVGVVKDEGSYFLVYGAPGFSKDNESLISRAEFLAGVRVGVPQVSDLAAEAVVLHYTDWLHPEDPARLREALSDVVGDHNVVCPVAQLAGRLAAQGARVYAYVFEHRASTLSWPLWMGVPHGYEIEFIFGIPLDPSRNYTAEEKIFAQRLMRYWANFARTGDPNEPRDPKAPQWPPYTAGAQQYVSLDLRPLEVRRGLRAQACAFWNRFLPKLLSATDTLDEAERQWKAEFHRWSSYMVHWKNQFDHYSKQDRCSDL
Vasopressin V1a receptor, sequence (P37288 whole entry): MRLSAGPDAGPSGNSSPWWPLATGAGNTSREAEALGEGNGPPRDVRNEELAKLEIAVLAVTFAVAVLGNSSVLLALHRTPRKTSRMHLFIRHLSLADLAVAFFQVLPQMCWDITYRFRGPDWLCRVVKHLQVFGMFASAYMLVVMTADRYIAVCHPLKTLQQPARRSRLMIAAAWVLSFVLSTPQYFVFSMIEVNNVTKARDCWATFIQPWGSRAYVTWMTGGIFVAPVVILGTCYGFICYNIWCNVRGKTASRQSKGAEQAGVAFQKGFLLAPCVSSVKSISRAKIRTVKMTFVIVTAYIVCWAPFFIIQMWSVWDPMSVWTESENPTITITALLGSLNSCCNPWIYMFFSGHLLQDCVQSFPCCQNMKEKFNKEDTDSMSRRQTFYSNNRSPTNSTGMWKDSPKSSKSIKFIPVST
Delta-type opioid receptor, sequence (P41143 whole entry): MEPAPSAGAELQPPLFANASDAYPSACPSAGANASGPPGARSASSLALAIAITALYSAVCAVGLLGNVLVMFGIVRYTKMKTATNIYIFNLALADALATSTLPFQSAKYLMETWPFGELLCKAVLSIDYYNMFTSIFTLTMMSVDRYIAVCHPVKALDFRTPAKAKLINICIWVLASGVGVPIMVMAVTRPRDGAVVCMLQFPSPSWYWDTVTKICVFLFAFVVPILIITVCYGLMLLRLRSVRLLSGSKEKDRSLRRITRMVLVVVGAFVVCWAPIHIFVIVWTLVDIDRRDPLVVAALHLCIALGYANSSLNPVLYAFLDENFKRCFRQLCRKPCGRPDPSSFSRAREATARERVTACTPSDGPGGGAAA

Structure (SMILES): CC1=C(/C=C/C(C)=C/C=C/C(C)=C\C(=O)O)C(C)(C)CCC1 [ISOTRETINOIN]
- IC50 [1]: Not Active
- IC50 (Thromboxane-A synthase): Not Active
- IC50 [2]: Not Active
- IC50 [3]: Not Active
- Ki [3]: Not Active
- IC50 (Vasopressin V1a receptor): Not Active
- IC50 [4]: Not Active
- IC50 [5]: Not Active
- IC50 [6]: Not Active
- IC50 (Insulin receptor): Not Active
- IC50 (Melanocortin receptor 4): Not Active
- IC50 [7]: Not Active
- IC50 [8]: Not Active
- Ki [8]: Not Active
- IC50 ([9]; read-out: IC50): 848 nM
- Ki [9]: 540 nM
- IC50 [10]: Not Active
- IC50 [11]: Not Active
- Ki [11]: Not Active
- IC50 [12]: Not Active
- IC50 [13]: Not Active
- IC50 (Acetylcholinesterase): Not Active
- IC50 (Cannabinoid receptor 1): Not Active

Structure (SMILES): CO[C@@H]1[C@@H](O[C@@H]2O[C@H](C)[C@@H](O[C@H]3C[C@@](C)(O)[C@@H](OC(=O)CC(C)C)[C@H](C)O3)[C@H](N(C)C)[C@H]2O)[C@@H](CC=O)C[C@@H](C)[C@@H](O)/C=C/C=C/C[C@@H](C)OC(=O)C[C@H]1O [KITASAMYCIN]
- IC50 [1]: Not Active
- IC50 (Thromboxane-A synthase): Not Active
- IC50 [2]: Not Active
- IC50 [3]: Not Active
- Ki [3]: Not Active
- IC50 (Vasopressin V1a receptor): Not Active
- IC50 [4]: Not Active
- IC50 [5]: Not Active
- IC50 [6]: Not Active
- IC50 (Insulin receptor): Not Active
- IC50 (Melanocortin receptor 4): Not Active
- IC50 [7]: Not Active
- IC50 [8]: Not Active
- Ki [8]: Not Active
- IC50 ([9]; cho-k1): Not Active
- IC50 [10]: Not Active
- IC50 [11]: Not Active
- Ki [11]: Not Active
- IC50 [12]: Not Active
- IC50 [13]: Not Active
- IC50 (Acetylcholinesterase): Not Active
- IC50 (Cannabinoid receptor 1): Not Active

Structure (SMILES): CC(CCc1ccccc1)NCC(O)c1ccc(O)c(C(N)=O)c1 (centres undefined) [LABETALOL]
- IC50 [1]: Not Active
- IC50 (Thromboxane-A synthase): Not Active
- IC50 [2]: Not Active
- IC50 [3]: Not Active
- Ki [3]: Not Active
- IC50 (Vasopressin V1a receptor): Not Active
- IC50 [4]: Not Active
- IC50 [5]: Not Active
- IC50 [6]: Not Active
- IC50 (Insulin receptor): Not Active
- IC50 (Melanocortin receptor 4): Not Active
- IC50 [7]: Not Active
- IC50 [8]: Not Active
- Ki [8]: Not Active
- IC50 ([9]; read-out: IC50): 3040 nM
- Ki [9]: 1930 nM
- IC50 [10]: Not Active
- IC50 [11]: Not Active
- Ki [11]: Not Active
- IC50 [12]: Not Active
- IC50 [13]: Not Active
- IC50 (Acetylcholinesterase): Not Active
- IC50 (Cannabinoid receptor 1): Not Active

Structure (SMILES): Nc1nnc(-c2cccc(Cl)c2Cl)c(N)n1 [LAMOTRIGINE]
- IC50 [1]: Not Active
- IC50 (Thromboxane-A synthase): Not Active
- IC50 [2]: Not Active
- IC50 [3]: Not Active
- Ki [3]: Not Active
- IC50 (Vasopressin V1a receptor): Not Active
- IC50 [4]: Not Active
- IC50 [5]: Not Active
- IC50 [6]: Not Active
- IC50 (Insulin receptor): Not Active
- IC50 (Melanocortin receptor 4): Not Active
- IC50 [7]: Not Active
- IC50 [8]: Not Active
- Ki [8]: Not Active
- IC50 ([9]; cho-k1): Not Active
- IC50 [10]: Not Active
- IC50 [11]: Not Active
- Ki [11]: Not Active
- IC50 [12]: Not Active
- IC50 [13]: Not Active
- IC50 (Acetylcholinesterase): Not Active
- IC50 (Cannabinoid receptor 1): Not Active

Structure (SMILES): CCC[C@@H]1C[C@@H](C(=O)N[C@@H]([C@H]2O[C@H](SC)[C@H](O)[C@@H](O)[C@H]2O)[C@@H](C)O)N(C)C1 [LINCOMYCIN]
- IC50 [1]: Not Active
- IC50 (Thromboxane-A synthase): Not Active
- IC50 [2]: Not Active
- IC50 [3]: Not Active
- Ki [3]: Not Active
- IC50 (Vasopressin V1a receptor): Not Active
- IC50 [4]: Not Active
- IC50 [5]: Not Active
- IC50 [6]: Not Active
- IC50 (Insulin receptor): Not Active
- IC50 (Melanocortin receptor 4): Not Active
- IC50 [7]: Not Active
- IC50 [8]: Not Active
- Ki [8]: Not Active
- IC50 ([9]; cho-k1): Not Active
- IC50 [10]: Not Active
- IC50 [11]: Not Active
- Ki [11]: Not Active
- IC50 [12]: Not Active
- IC50 [13]: Not Active
- IC50 (Acetylcholinesterase): Not Active
- IC50 (Cannabinoid receptor 1): Not Active

Structure (SMILES): NCCCC[C@H](N[C@@H](CCc1ccccc1)C(=O)O)C(=O)N1CCC[C@H]1C(=O)O [LISINOPRIL ANHYDROUS]
- IC50 [1]: Not Active
- IC50 (Thromboxane-A synthase): Not Active
- IC50 [2]: Not Active
- IC50 [3]: Not Active
- Ki [3]: Not Active
- IC50 (Vasopressin V1a receptor): Not Active
- IC50 [4]: Not Active
- IC50 [5]: Not Active
- IC50 [6]: Not Active
- IC50 (Insulin receptor): Not Active
- IC50 (Melanocortin receptor 4): Not Active
- IC50 [7]: Not Active
- IC50 [8]: Not Active
- Ki [8]: Not Active
- IC50 ([9]; cho-k1): Not Active
- IC50 [10]: Not Active
- IC50 [11]: Not Active
- Ki [11]: Not Active
- IC50 [12]: Not Active
- IC50 [13]: Not Active
- IC50 (Acetylcholinesterase): Not Active
- IC50 (Cannabinoid receptor 1): Not Active
